Measured values as given in publication PMC8877721 (Journal of medicinal chemistry, 2021).

Tests used:
ZIKV (strain PRABC59) [1] = assay: Antiviral plaque assay, ZIKV; assay type: cell-based, Zika virus; conditions: for reduction in ZIKV virus levels: 0.1 mM dose, MOI 0.1, plaque titration 4 days post-infection
WNV = assay: Antiviral plaque assay, WNV; assay type: cell-based, West Nile virus; conditions: MOI 0.1, 3 days post-infection
Vero cells = assay: Alamar Blue cell viability assay, Vero cells; assay type: cell-based; conditions: 2 days in culture
HUH7 cells [2] = assay: Alamar Blue cell viability assay, HUH7 cells; assay type: cell-based, human; conditions: 2 days in culture
HUH7 cells [3] = assay: In cellulo metabolism of 1 and ddhC to ddhCTP in HUH7 cells; assay type: cell-based, human; conditions: 100 μM
[4] = target: T1, DNA polymerase γ (catalytic domain) (Homo sapiens, UniProt P54098); assay: Enzymatic incorporation of ddhCTP by DNA polymerase gamma; assay type: biochemical; conditions: 100 μM nucleotide, 0, 10 or 20 min, gel electrophoresis
T1 sequence (P54098 1-1239): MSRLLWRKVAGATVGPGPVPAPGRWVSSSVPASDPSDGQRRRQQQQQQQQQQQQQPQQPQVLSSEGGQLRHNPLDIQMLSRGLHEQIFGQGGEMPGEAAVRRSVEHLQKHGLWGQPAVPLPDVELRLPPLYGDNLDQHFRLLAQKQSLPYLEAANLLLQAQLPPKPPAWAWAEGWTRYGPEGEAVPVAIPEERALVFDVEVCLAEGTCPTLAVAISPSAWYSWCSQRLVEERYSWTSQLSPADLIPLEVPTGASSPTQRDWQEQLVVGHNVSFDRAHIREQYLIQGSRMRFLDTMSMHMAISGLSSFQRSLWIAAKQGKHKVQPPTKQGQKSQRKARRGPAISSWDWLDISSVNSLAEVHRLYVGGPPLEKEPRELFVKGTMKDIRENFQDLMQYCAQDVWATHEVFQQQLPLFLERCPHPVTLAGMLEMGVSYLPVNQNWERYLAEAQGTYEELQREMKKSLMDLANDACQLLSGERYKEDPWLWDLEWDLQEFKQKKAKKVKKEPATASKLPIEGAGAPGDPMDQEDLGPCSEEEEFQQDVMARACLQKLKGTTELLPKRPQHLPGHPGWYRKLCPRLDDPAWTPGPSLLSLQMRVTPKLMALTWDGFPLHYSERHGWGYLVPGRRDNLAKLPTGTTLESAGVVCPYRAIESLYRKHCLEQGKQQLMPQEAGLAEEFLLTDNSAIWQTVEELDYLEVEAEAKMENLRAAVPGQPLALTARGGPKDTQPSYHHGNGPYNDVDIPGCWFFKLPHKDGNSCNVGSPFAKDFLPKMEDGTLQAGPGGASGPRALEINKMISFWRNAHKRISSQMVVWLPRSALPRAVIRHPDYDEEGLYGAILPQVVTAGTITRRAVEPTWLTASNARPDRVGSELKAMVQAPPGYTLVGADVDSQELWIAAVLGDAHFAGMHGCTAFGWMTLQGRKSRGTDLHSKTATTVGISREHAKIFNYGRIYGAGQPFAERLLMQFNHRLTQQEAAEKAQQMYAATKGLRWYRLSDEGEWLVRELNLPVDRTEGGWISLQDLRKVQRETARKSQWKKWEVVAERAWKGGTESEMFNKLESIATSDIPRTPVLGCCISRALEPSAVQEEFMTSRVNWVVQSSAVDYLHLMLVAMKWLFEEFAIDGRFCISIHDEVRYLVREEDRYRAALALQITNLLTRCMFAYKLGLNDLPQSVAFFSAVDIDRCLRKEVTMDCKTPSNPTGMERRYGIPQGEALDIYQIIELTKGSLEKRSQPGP

ZIKV NS5 RdRp = ZIKV NS5 RdRp (Zika virus, UniProt A0A024B7W1); assay: ZIKV RdRp-catalyzed nucleotide incorporation; assay type: biochemical; conditions: synthetic ddhCTP
Chain of ZIKV NS5 RdRp (A0A024B7W1 2521-3423): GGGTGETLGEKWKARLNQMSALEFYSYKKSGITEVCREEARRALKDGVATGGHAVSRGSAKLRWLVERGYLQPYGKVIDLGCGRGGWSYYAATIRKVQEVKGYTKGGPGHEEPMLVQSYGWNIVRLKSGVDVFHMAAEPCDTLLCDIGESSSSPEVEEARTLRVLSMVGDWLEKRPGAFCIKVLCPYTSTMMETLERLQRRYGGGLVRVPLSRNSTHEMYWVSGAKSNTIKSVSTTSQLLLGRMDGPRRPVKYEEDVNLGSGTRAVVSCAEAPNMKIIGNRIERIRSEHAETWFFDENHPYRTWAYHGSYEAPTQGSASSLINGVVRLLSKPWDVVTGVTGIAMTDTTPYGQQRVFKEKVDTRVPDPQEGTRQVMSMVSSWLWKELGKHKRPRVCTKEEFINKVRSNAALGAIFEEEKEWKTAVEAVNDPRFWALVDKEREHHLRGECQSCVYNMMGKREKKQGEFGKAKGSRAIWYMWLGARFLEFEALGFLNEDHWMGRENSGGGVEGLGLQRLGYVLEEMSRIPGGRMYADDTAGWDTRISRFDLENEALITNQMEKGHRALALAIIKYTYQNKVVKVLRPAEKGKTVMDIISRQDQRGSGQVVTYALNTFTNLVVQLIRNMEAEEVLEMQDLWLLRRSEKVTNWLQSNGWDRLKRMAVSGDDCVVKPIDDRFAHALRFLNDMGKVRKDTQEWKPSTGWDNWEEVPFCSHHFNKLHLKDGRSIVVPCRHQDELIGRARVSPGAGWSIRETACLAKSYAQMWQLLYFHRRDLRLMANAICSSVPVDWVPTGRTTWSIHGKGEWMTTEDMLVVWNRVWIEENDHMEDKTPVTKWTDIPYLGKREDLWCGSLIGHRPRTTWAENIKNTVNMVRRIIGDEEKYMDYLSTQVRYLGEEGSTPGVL

[5] = PAMPA assay; cited from earlier work
ZIKV (strain PRABC59) [6] = conditions: 1 mM ddhC over 24 h; cited from earlier work
HEK293 cells = HEK293 cells exposed to ddhC, after 48 h; cited from earlier work

## CC(C)OC(=O)[C@H](C)NP(=O)(OCC1=C[C@@H](O)[C@H](n2ccc(N)nc2=O)O1)Oc1ccccc1 (stereo in doubt) [compound 1, Isopropyl ((S)-(((4R,5R)-5-(4-amino-2-oxopyrimidin-1(2H)-yl)-4-hydroxy-4,5-dihydrofuran-2-yl)methoxy)(phenoxy)phosphoryl)-L-alaninate]
ZIKV (strain PRABC59) [1]; HUH7 cells
  reduction in ZIKV virus levels: > 1 log10 pfu/mL
ZIKV (strain PRABC59) [1]; HUH7.5 cells
  reduction in ZIKV virus levels: > 1 log10 pfu/mL
ZIKV (strain PRABC59) [1]; Vero cells, MOI 0.1, 4 days post-infection, compared with HUH7 and HUH7.5
  activity against ZIKV in Vero cells (in words): weaker activity
WNV; HUH7 cells
  reduction of WNV levels: > 4 log10 pfu/mL
WNV; HUH7.5 cells
  reduction of WNV levels: > 4 log10 pfu/mL
WNV; Vero cells
  activity against WNV (in words): inactive
Vero cells
  cytotoxicity (in words): neither ddhC nor 1 were cytotoxic
HUH7 cells [2]
  cytotoxicity (in words): neither ddhC nor 1 were cytotoxic
HUH7 cells [3]
  dosed compound in HUH7 lysate 24 h following dosage (cell permeable): detected

## Nc1ccn([C@@H]2OC(COP(=O)(O)OP(=O)(O)OP(=O)(O)O)=C[C@H]2O)c(=O)n1 [ddhCTP, 3’-Deoxy-3’,4’-didehydrocytidine-5’-triphosphate]
[4]
  substrate for DNA polymerase γ (in words): not a substrate
ZIKV NS5 RdRp
  mode of action in primer extension assay (in words): obligate chain terminator

## CC(C)OC(=O)[C@H](C)N[P@](=O)(OC[C@H]1O[C@@H](n2ccc(=O)[nH]c2=O)[C@](C)(F)[C@@H]1O)Oc1ccccc1 [sofosbuvir]
[5]
  Papp: 0.046 ×10⁻⁶ cm/s

## Nc1ccn([C@@H]2OC(CO)=C[C@H]2O)c(=O)n1 [ddhC, 3’-deoxy-3’,4’-didehydro-cytidine]
WNV; HUH7 cells
  activity against WNV (in words): ineffective
WNV; HUH7.5 cells
  activity against WNV (in words): ineffective
WNV; Vero cells
  activity against WNV (in words): ineffective
Vero cells
  cytotoxicity (in words): neither ddhC nor 1 were cytotoxic
HUH7 cells [2]
  cytotoxicity (in words): neither ddhC nor 1 were cytotoxic
HUH7 cells [3]
  dosed compound in HUH7 lysate 24 h following dosage (cell permeable): detected
ZIKV (strain PRABC59) [6]
  reduction of ZIKV levels in infected Vero cells: 50-200 x
HEK293 cells
  ddhCTP produced: ~ 100 μM
